In patent publication US9453226B2, “Protection of cells from Alu-RNA-induced degeneration and inhibitors for protecting cells” (UNIVERSITY OF KENTUCKY RESEARCH FOUNDATION, priority 2011, dated 2016):
“Also recorded” adds a separate entry of the source. Read-outs that look alike come from different tables or passages of the source. *: point of attachment. Cbz = O=C(OCc1ccccc1)*; CH2F = FC*

Columns and labels:
human RPE cells [1] = settings: glycine 5 mM, LPS 5 μg/ml 6 h, ATP 25 μM
Description: (§1) MTS assays were performed using the CellTiter 96 AQueous One Solution Cell Proliferation Assay (Promega) according to the manufacturer's instructions. For examining the cytoprotective effect of glycine in Alu RNA induced cell death, human RPE cells were transfected with pNull/pAlu. At 6 h post-transfection the cells were incubated with complete media containing glycine (5 mM) or vehicle, and cell viability was assessed after 24 h. Similarly, human RPE cells primed with LPS (5 μg/ml for 6 h) were treated with ATP (25 μM) in the presence of glycine containing media (5 mM). 30 min post ATP cell viability was assessed as described above.

RPE [2] = assay: pAlu-induced RPE degeneration in wild-type mice, inhibitors given intravitreously; type: in vivo; settings: WT mice, subretinal pAlu, inhibitor intravitreous, fundus photographs and ZO-1 flat mounts
Description: (§2) Subretinal injection and imaging. Subretinal injections (1 μL) were performed using a Pico-Injector (PLI-100, Harvard Apparatus). Plasmids were transfected in vivo using 10% Neuroporter (Genlantis). Fundus imaging was performed on a TRC-50 IX camera (Topcon) linked to a digital imaging system (Sony). RPE flat mounts were immunolabeled using antibodies against zonula occludens-1 (Invitrogen).
(§3) Retinal photographs of dilated mouse eyes were taken with a TRC-50 IX camera (Topcon) linked to a digital imaging system (Sony).
(§4) Human eyes fixed in 2-4% paraformaldehyde were prepared as eyecups, cryoprotected in 30% sucrose, embedded in optimal cutting temperature compound (Tissue-Tek OCT; Sakura Finetek), and cryosectioned into 10 μm sections. Depigmentation was achieved using 0.25% potassium permanganate and 0.1% oxalic acid. Immunohistochemical staining was performed with the rabbit antibody against NLRP3 (1:100, Sigma Aldrich) or rabbit antibody against Caspase-1 (prediluted, AbCam). Isotype IgG was substituted for the primary antibody to assess the specificity of the staining. Bound antibody was detected with biotin-conjugated secondary antibodies, followed by incubation with ABC reagent and visualized by Vector Blue (Vector Laboratories). Levamisole (Vector Laboratories) was used to block endogenous alkaline phosphatase activity. Slides were washed in PBS, counterstained with neutral red (Fisher Scientific), rinsed with deionized water, air dried, and then mounted in Vectamount (Vector Laboratories). Fluorescent labeling of human tissue was performed with the rabbit antibody against PYCARD (1:50, Clone N-15, Santa Cruz Biotechnology) Immunolabeling was visualized by fluorescently conjugated anti-rabbit secondary antibody (Invitrogen). Tissue autofluorescence was quenched by incubating the sections in 0.3% Sudan black (Fisher Scientific). Sections were mounted in Vectashield with DAPI (Vector Laboratories). Mouse RPE/choroid flat mounts were fixed with 4% paraformaldehyde or 100% methanol, stained with rabbit antibodies against human zonula occludens-1 (1:100, Invitrogen) and visualized with Alexa594 (Invitrogen). All images were obtained using the Leica SP-5 or Zeiss Axio Observer Z1 microscopes.
(§5) Subretinal injections (1 μL) in mice were performed using a Pico-Injector (PLI-100, Harvard Apparatus). In vivo transfection of plasmids coding for two different Alu sequences (pAlu) or empty control vector (pNull) (Bennett et al., 2008; Kaneko et al., 2011; Shaikh et al., 1997) was achieved using 10% Neuroporter (Genlantis). AAV1-BEST1-Cre (Alexander and Hauswirth, 2008) or AAV1-BEST1-GFP were injected at 1.0×10^11 pfu/mL and in vitro transcribed Alu RNA was injected at 0.3 mg/mL.
siRNAs formulated in siRNA buffer (20 mM KCL, 0.2 mM MgCl2 in HEPES buffer at pH 7.5; Dharmacon) or phosphate buffered saline (PBS; Sigma-Aldrich); the TLR4 antagonist Ultra Pure Rhodobacter sphaeroides LPS (LPS-RS, InvivoGen), a peptide inhibitor of MyD88 homodimerization IMG-2005 (IMGENEX), control inhibitor (IMGENEX), recombinant IL-18 (Medical & Biological Laboratories), neutralizing rat antibodies against mouse IL-1β (IMGENEX), neutralizing rat antibodies against mouse IL-18 (Medical & Biological Laboratories), isotype control IgGs (R&D Systems or eBioscience as appropriate), Caspase-1 inhibitor Z-WEHD-FMK (R&D Systems), Caspase control inhibitor Z-FA-FMK (R&D Systems), DPI (Enzo Life Sciences), Mito-TEMPO (Enzo Life Sciences), MitoQ and dTPP (both adsorbed to cyclodextrin and provided by M.P. Murphy, MRC Mitochondrial Biology Unit), and gp91ds-tat and scrambled gp91 ds-tat (both Anaspec), were dissolved in phosphate buffered saline (PBS; Sigma-Aldrich) or dimethyl sulfoxide (DMSO; Sigma-Aldrich), and injected into the vitreous humor in a total volume of 1 μL with a 33-gauge Exmire microsyringe (Ito Corporation). […] As a control, Luc siRNA-chol (17+2 nt) was used with identical dosages. […]

NLRP3 and IL18 mRNAs = assay: NLRP3 and IL18 mRNA in human RPE cells (real-time RT-PCR); type: cell-based
Text: Transcript abundance was quantified by real-time RT-PCR using an Applied Biosystems 7900 HT Fast Real-Time PCR system by the 2^−ΔΔCt method.
Total RNA was extracted from tissues or cells using Trizol reagent (Invitrogen) according to manufacturer's recommendations, DNase treated and reverse transcribed (QuantiTect, Qiagen). The RT products (cDNA) were amplified by real-time quantitative PCR (Applied Biosystems 7900 HT Fast Real-Time PCR system) with Power SYBR green Master Mix. Oligonucleotide primers specific for human IL1B (forward 5′-[…]-3′ and reverse 5′-[…]-3′), human IL18 (forward 5′-[…]-3′ and reverse 5′-[…]-3′), human NLRP3 (forward 5′-[…]-3′ and reverse 5′-[…]-3′), human PYCARD (forward 5′-[…]-3′ and reverse 5′-[…]-3′), human VDAC1 (forward 5′-[…]-3′ and reverse 5′-[…]-3′), human VDAC2 (forward 5′-[…]-3′ and reverse 5′-[…]-3′), human VDAC3 (forward 5′-[…]-3′ and reverse 5′-[…]-3′), human 18S rRNA (forward 5′-[…]-3′ and reverse 5′-[…]-3′), mouse Myd88 (forward 5′-[…]-3′ and reverse 5′-[…]-3′), mouse Nlrp3 (forward 5′-[…]-3′ and reverse 5′-[…]-3′), mouse Il18 (forward 5′-[…]-3′ and reverse 5′-[…]-3′), and mouse 18S rRNA (forward 5′-[…]-3′ and reverse 5′-[…]-3′) were used. The QPCR cycling conditions were 50° C. for 2 min, 95° C. for 10 min followed by 40 cycles of a two-step amplification program (95° C. for 15 s and 58° C. for 1 min). At the end of the amplification, melting curve analysis was applied using the dissociation protocol from the Sequence Detection system to exclude contamination with unspecific PCR products. […] For negative controls, no RT products were used as templates in the QPCR and verified by the absence of gel-detected bands. Relative expressions of target genes were determined by the 2^−ΔΔCt method.

RPE [3] = assay: Alu RNA-induced RPE degeneration in wild-type mice, inhibitors given intravitreously; type: in vivo; settings: WT mice, subretinal Alu RNA, inhibitor intravitreous
Description: as §2, §3, §4, §5
siRNAs formulated in siRNA buffer (20 mM KCL, 0.2 mM MgCl2 in HEPES buffer at pH 7.5; Dharmacon) or phosphate buffered saline (PBS; Sigma-Aldrich); the TLR4 antagonist Ultra Pure Rhodobacter sphaeroides LPS (LPS-RS, InvivoGen), a peptide inhibitor of MyD88 homodimerization IMG-2005 (IMGENEX), control inhibitor (IMGENEX), recombinant IL-18 (Medical & Biological Laboratories), neutralizing rat antibodies against mouse IL-1β (IMGENEX), neutralizing rat antibodies against mouse IL-18 (Medical & Biological Laboratories), isotype control IgGs (R&D Systems or eBioscience as appropriate), Caspase-1 inhibitor Z-WEHD-FMK (R&D Systems), Caspase control inhibitor Z-FA-FMK (R&D Systems), DPI (Enzo Life Sciences), Mito-TEMPO (Enzo Life Sciences), MitoQ and dTPP (both adsorbed to cyclodextrin and provided by M.P. Murphy, MRC Mitochondrial Biology Unit), and gp91ds-tat and scrambled gp91 ds-tat (both Anaspec), were dissolved in phosphate buffered saline (PBS; Sigma-Aldrich) or dimethyl sulfoxide (DMSO; Sigma-Aldrich), and injected into the vitreous humor in a total volume of 1 μL with a 33-gauge Exmire microsyringe (Ito Corporation). […] As a control, Luc siRNA-chol (17+2 nt) was used with identical dosages.

human RPE cells [4] = settings: peptide 100 μM
Description: All cell cultures were maintained at 37° C. and 5% CO2. Primary mouse RPE cells were isolated as previously described (Yang et al., 2009) and grown in Dulbecco Modified Eagle Medium (DMEM) supplemented with 20% FBS and standard antibiotics concentrations. Primary human RPE cells were isolated as previously described (Yang et al., 2008) and maintained in DMEM supplemented with 10% FBS and antibiotics. HeLa cells were maintained in DMEM supplemented with 20% FBS and standard antibiotics concentrations. THP-1 cells were cultured in RPMI 1640 medium supplemented with 10% FBS and antibiotics.
as §1
MTS assays were performed using the CellTiter 96 AQueous One Solution Cell Proliferation Assay (Promega) according to the manufacturer's instructions.

Compound	pAlu-induced RPE degeneration (RPE [2])	Alu RNA-induced RPE degeneration (RPE [3])	other results
NCC(=O)O [glycine]	–	–	human RPE cell death induced by LPS+ATP (human RPE cells [1]): inhibited; human RPE cell death induced by LPS+ATP (human RPE cells [1]; listed as Glycine): inhibits
c1ccc([I+]c2ccccc2)cc1 [DPI, diphenyliodonium]	protects	blocked	pAlu-induced NLRP3 and IL18 mRNA upregulation (NLRP3 and IL18 mRNAs): blocks; also recorded: blocked pAlu-induced NLRP3 and IL18 mRNA upregulation
DRQIKIWFQNRRMKWKK [control peptide]	–	did not do so	–
Cbz-IETD-CH2F	blocked RPE degeneration	–	pAlu-induced RPE degeneration (RPE [2]; listed as Caspase-8 inhibitor): protects; pAlu-induced cytotoxicity in human RPE cells (human RPE cells [4]): inhibited human RPE cell death; also recorded: protects
COC1=C(OC)C(=O)C(CCCCCCCCCC[P+](c2ccccc2)(c2ccccc2)c2ccccc2)=C(C)C1=O [MitoQ]	–	prevent; also recorded: blocked	–
CC1(C)CC(NC(=O)C[P+](c2ccccc2)(c2ccccc2)c2ccccc2)CC(C)(C)N1[O] [Mito-TEMPO]	–	blocked	Alu RNA-induced RPE degeneration (RPE [3]; listed as MitoTempo): prevent
